Here are results for 14 molecules from ChEMBL document CHEMBL1141328, “Biologically active aspidofractinine, rhazinilam, akuammiline, and vincorine alkaloids from Kopsia” (J Nat Prod, 2007).

Holding throughout (type): functional, cell-based
Experiment [1] deals with KB. Put plainly: Cytotoxicity against human KB cells.
A short description of experiment [2]: Cytotoxicity against human KB/VJ300 cells.
Experiment [3] deals with KB. Nature of the experiment: Cytotoxicity against vincristine-resistant human KB cells.
Experiment [4] can be described thus: Cytotoxicity against vincristine-resistant human KB/VJ300 cells.
Experiment [5] is described as follows: Cytotoxicity against vincristine-resistant human KB/VJ300 cells in presence of 0.121 uM vincristine.

Turning to `CC[C@]1(O)C[C@H]2CN(CCc3c([nH]c4ccccc34)[C@@](C(=O)OC)(c3cc4c(cc3OC)N(C=O)[C@H]3[C@@](O)(C(=O)OC)[C@H](OC(C)=O)[C@]5(CC)C=CCN6CC[C@]43[C@@H]65)C2)C1` [VINCRISTINE], the 50% inhibitory concentration (IC50) in experiment [1] was determined as 0.0028 µM; in experiment [2], 1.2 µM.

As to `COC(=O)N1c2ccccc2[C@@]23CCN4CC=C[C@]5(CC[C@]12C(O)(C(=O)OC)C5O)[C@H]43` (stereo partly specified) [KOPSILOSCINE A], the IC50 came to 45.8 µM in experiment [3], 42.3 µM in experiment [4] and 8.9 µM in experiment [5].

For `C/C=C1/CN2CC[C@]34C(=Nc5ccccc53)[C@@H]2C[C@H]1C4(C(=O)OC)C(=O)OC(C)=O` (stereo partly specified), the IC50 in experiment [3], in experiment [4] and in experiment [5] was > 25 µg/mL throughout.

In the case of `COC(=O)N1c2ccccc2[C@@]23CCN4CCC[C@]5(CC[C@]12[C@](O)(C(=O)OC)[C@H]5O)[C@H]43` [KOPSILOSCINE B], the results for the IC50 in experiment [3], in experiment [4] and in experiment [5] were > 25 µg/mL, > 25 µg/mL and 11.7 µM, respectively.

As for `COC(=O)N1c2ccc(OC)cc2[C@@]23CCN4CCC[C@]5(CC[C@]12[C@](O)(C(=O)OC)[C@H]5O)[C@H]43` [KOPSILOSCINE D], the IC50 in experiment [3] was > 25 µg/mL; in experiment [4], > 25 µg/mL; in experiment [5], 25.1 µM.

On to `COC(=O)N1c2ccccc2[C@@]23CCN4CC[C@H](O)[C@@]5(CC[C@]12[C@](O)(C(=O)OC)[C@H]5O)[C@H]43` [KOPSILOSCINE C], for which the IC50 in experiment [3], in experiment [4] and in experiment [5] was > 25 µg/mL throughout.

On to `CC[C@]12CCCn3ccc(c31)-c1ccccc1NC(=O)CC2` [RHAZINILAM], for which the values for the IC50 in experiment [3], in experiment [4] and in experiment [5] were 0.65 µM, 0.83 µM and 1.16 µM, respectively.

On to `C/C=C1/CN(C=O)[C@H]2C[C@H]1C(C(=O)OC)[C@@]13CCO[C@@]21Nc1ccccc13` (stereo partly specified) [ASPIDOPHYLLINE A], for which the figures for the IC50 in experiment [3], in experiment [4] and in experiment [5] were > 25 µg/mL, > 25 µg/mL and 29.1 µM, respectively.

On to `COC(=O)[C@H]1C[C@@]23CCCN4CC[C@@]5(c6ccccc6N[C@]15CC2)[C@@H]43`, for which the IC50 in experiment [3], in experiment [4] and in experiment [5] was > 25 µg/mL throughout.

`COC(=O)N1c2c(OC)cccc2[C@@]23CCN4CC[C@H](O)[C@@]5(CC[C@]12[C@](O)(C(=O)OC)[C@H]5O)[C@H]43` [KOPSILOSCINE F]: the concentration for half-maximal inhibition (IC50) in experiment [3], in experiment [4] and in experiment [5] was > 25 µg/mL throughout.

Turning to `C/C=C1/CN2CC[C@@]34c5ccccc5C[C@@]23CC[C@H]1C4(CO)C(=O)OC` (stereo partly specified) [VINCOPHYLLINE], the IC50 in experiment [3], in experiment [4] and in experiment [5] was > 25 µg/mL throughout.

For `COC(=O)N1c2ccc(OC)cc2[C@@]23CCN4CC[C@H](O)[C@@]5(CC[C@]12[C@](O)(C(=O)OC)[C@H]5O)[C@H]43` [KOPSILOSCINE E], the IC50 in experiment [3], in experiment [4] and in experiment [5] was > 25 µg/mL each time.

With `CC[C@@]12CCC(=O)Nc3ccccc3-c3ccn(c31)C(=O)CC2` [RHAZINICINE], the IC50 in experiment [3] came to 4.06 µM; in experiment [4], 8.12 µM; in experiment [5], 6.01 µM.

In the case of `CC[C@]12CCCn3c(C=O)cc(c31)-c1ccccc1NC(=O)CC2` [RHAZINAL], the values for the IC50 in experiment [3], in experiment [4] and in experiment [5] were 0.73 µM, 0.76 µM and 0.93 µM, respectively.

By IC50 is commonly meant the concentration at which inhibition is half-maximal.
